Data set [1] concerns CCRF-CEM. The experiment in a line: Compound was evaluated for its ability to inhibit the replication of HIV-1 virus by 50% in cell culture using XTT endpoint. To be noted: Homo sapiens, read-out: ED50 (the source's name). It counts as functional. For orientation: Tetrazolium assays rely on reduction of a dye to a coloured formazan, in cell work by metabolically active cells.

Data set [2] has as its system CCRF-CEM. Kind of data set: Cytotoxicity against CEM cells. It counts as functional, Homo sapiens.
Data set [3] concerns the target Human immunodeficiency virus type 1 protease (Human immunodeficiency virus 1, UniProt Q72874). The experiment in a line: Inhibition of HIV protease cleavage of V-S-Q-N-(b-naphthylalanine)-P-I-V.
Data set [4] in a line: Half-life period by analytical HPLC at pH 7.2. It counts as ADME.
The subject of data set [5] is CCRF-CEM. Kind of data set: Compound was evaluated for its ability to inhibit the replication of HIV-2 virus (strain CBL-20) by 50% in cell culture using XTT endpoint. It counts as functional. As to conditions: Homo sapiens, read-out: ED50 (the source's name).

The structures appear in SMILES notation.

In general, IC50 refers to the concentration that gives 50% inhibition. In the case of `C[C@@H](O)C(C)(C)OC(=O)N[C@@H](Cc1ccccc1)[C@H](O)CNC[C@@H](O)[C@H](Cc1ccccc1)NC(=O)OC(C)(C)C`, the EC50 in the data set with CCRF-CEM [1] was 320 nM. This compound also displayed a Cytotoxicity in the data set on CCRF-CEM [2] of more than 10 µM. This compound also returned an IC50 in data set [3] of 160 nM.
In data set [3], `CC(C)(C)OC(=O)N[C@@H](Cc1ccccc1)[C@H](O)CNC[C@@H](O)[C@@H](N)Cc1ccccc1` showed an IC50 of more than 10000 nM.
Still for that read-out and setting: next, `CC(C)(C)OC(=O)N[C@@H](Cc1ccccc1)[C@H](O)CNC[C@@H](O)[C@H](Cc1ccccc1)NC(=O)OC(C)(C)CN`: more than 10000 nM.
The term half-life denotes the time needed for the level to fall by half in the phase considered. As for `CC(C)(C)OC(=O)N[C@@H](Cc1ccccc1)[C@H](O)CNC[C@@H](O)[C@H](Cc1ccccc1)NC(=O)OC(C)(CO)CO`, in the data set on CCRF-CEM [2], the Cytotoxicity was more than 10 µM. The compound also registered an IC50 in data set [3] of 200 nM. The same compound had a half-life in data set [4] of 18 h.
In the case of `CC(C)(C)OC(=O)N[C@@H](Cc1ccccc1)[C@H](O)CNC[C@@H](O)[C@H](Cc1ccccc1)NC(=O)OCCO`, in the data set with CCRF-CEM [1], the EC50 was 280 nM. Moreover, in the data set with CCRF-CEM [2], the Cytotoxicity is more than 10 µM. In data set [3], this compound came in with an IC50 of 230 nM.
For `CC(C)(C)OC(=O)N[C@@H](Cc1ccccc1)[C@H](O)CNC[C@@H](O)[C@H](Cc1ccccc1)NC(=O)OC(C)(C)CO`, the EC50 with CCRF-CEM [1] was 38 nM; in the data set with CCRF-CEM [5], 103 nM. Besides, the Cytotoxicity entry in the data set on CCRF-CEM [2] is on record as “>=10000 nM”. The midpoint of inhibition in data set [3], the IC50, lay at 35 nM.
`C[C@H](O)C(C)(C)OC(=O)N[C@@H](Cc1ccccc1)[C@H](O)CNC[C@@H](O)[C@H](Cc1ccccc1)NC(=O)OC(C)(C)C`: in the data set on CCRF-CEM [1], the EC50 worked out at 35 nM. The Cytotoxicity in the data set on CCRF-CEM [2] was more than 10 µM. In addition, in data set [3], 105 nM corresponded to half-maximal inhibition (IC50).
For `COCC(C)(C)OC(=O)N[C@@H](Cc1ccccc1)[C@H](O)CNC[C@@H](O)[C@H](Cc1ccccc1)NC(=O)OC(C)(C)C`, the EC50 in the data set with CCRF-CEM [1] was found to be 1040 nM. The Cytotoxicity result with CCRF-CEM [2] was “>=10000 nM”. For the same compound, the IC50 in data set [3] came to 420 nM.
`CC(C)(C)OC(=O)N[C@@H](Cc1ccccc1)[C@H](O)CNC[C@@H](O)[C@H](Cc1ccccc1)NC(=O)OC(C)(C)CNC=O`: in the data set with CCRF-CEM [1], the EC50 stood at 610 nM. Further, the Cytotoxicity result in the data set on CCRF-CEM [2] was “>=10000 nM”. The 50% inhibitory concentration (IC50) in data set [3] worked out at 1500 nM.
As for `CC(C)(C)OC(=O)N[C@@H](Cc1ccccc1)[C@H](O)CNC[C@@H](O)[C@H](Cc1ccccc1)NC(=O)OC(C)(C)CCCO`, the EC50 with CCRF-CEM [1] worked out at 650 nM. The Cytotoxicity result in the data set with CCRF-CEM [2] is “>=10000 nM”. For the same compound, it took 1100 nM to reach half-maximal inhibition in data set [3] (IC50).
On the same counts, the results for `CC(C)(C)OC(=O)N[C@@H](Cc1ccccc1)[C@H](O)CNC[C@@H](O)[C@H](Cc1ccccc1)NC(=O)OC(C)(C)CCO` are 175 nM, “>=10000 nM” and 200 nM.
On the same counts, the results for `CC(C)(CO)OC(=O)N[C@@H](Cc1ccccc1)[C@H](O)CNC[C@@H](O)[C@H](Cc1ccccc1)NC(=O)OC(C)(C)CO` are 843 nM, more than 10 µM and 16 nM.
For `CC(C)(C)OC(=O)N[C@@H](Cc1ccccc1)[C@H](O)CNC[C@@H](O)[C@H](Cc1ccccc1)NC(=O)OC1(CO)CCC1` the same measures were 155 nM, more than 10 µM and 100 nM.
As to `CC(C)(C)OC(=O)N[C@@H](Cc1ccccc1)[C@H](O)CNC[C@@H](O)[C@H](Cc1ccccc1)NC(=O)OC(C)(C)C`, the EC50 with CCRF-CEM [1] is 80 nM. Further, the Cytotoxicity result in the data set with CCRF-CEM [2] was “>=10000 nM”.

The record behind these values is ChEMBL document CHEMBL1128839, “Aminodiol HIV protease inhibitors. 2. 1,1-Dimethyl-2-hydroxyethyl carbamate derivatives with enhanced potency” (Bioorg Med Chem Lett, 1995).
